These results are taken from article PMC10224329, “Design, Synthesis, and Antiproliferative Activity of Benzopyran-4-One-Isoxazole Hybrid Compounds” (Molecules, 2023).

“Also recorded” adds a separate entry of the source.

The subject of assay [1] is human embryonic kidney (HEK-293) cell lines. The assay can be described thus: MTS cell viability assay, non-cancerous cells. It is filed as cell-based. The following applies: Homo sapiens. From the text:
(§1) The compounds were further screened for their in vitro cytotoxicity against non-cancerous normal cell lines, viz., human embryonic kidney (HEK-293) and normal pig kidney (LLCPK) cell lines. These cell lines were selected to determine whether the compounds had selectivity against cancerous cells in contrast to non-cancerous cells. The data obtained is shown in Figure 3a–b (cf. Supplementary Materials for the data obtained for intermediates and starting materials Figure S28.7–S28.8, page no. 77–78).
(§2) Cell viability assays were performed using the MTS protocol. The in vitro cytotoxicity of the conjugates was evaluated using six human cancer cell lines, one human normal kidney cell line, and one mammalian normal kidney cell line, which included human leukemia carcinoma cell lines (CCRF-CEM), human ovarian adenocarcinoma cell lines (SKOV-3), human breast tumor cell lines (MDA-MB-231), human prostate cancer cell lines (PC-3), androgen-independent human prostate cancer cell lines (DU-145), human renal carcinoma (iSLK), human embryonic kidney cell lines (HEK-293), and normal mammalian kidney cell line (LLCPK) to determine the toxicity of the synthesized conjugates. CCRF-CEM cells were seeded at 50,000 cells in 0.1 mL per well in 96-well plates, and in the case of SKOV-3, MDA-MB-231, PC-3, DU-145, HEK-293, and LLCPK cell lines, the cells were seeded at 5000 cells in 0.1 mL per well in 96-well plates. The CCRF-CEM cells were seeded in RPMI-1640 media containing 2mM L-glutamine, 1.5 g/L sodium bicarbonate, supplemented with fetal bovine serum (FBS) 10% media, SKOV-3, MDA-MB-231, and LLCPK cells were seeded in MEME media with Earle’s salts and sodium bicarbonate, without L-glutamine, supplemented with fetal bovine serum (FBS) 10%, PC-3 cells were seeded in DMEM:F-12 containing 1:1 mixture with L-glutamine with HEPES, supplemented with fetal bovine serum (FBS) 10%, and DU-145 and HEK-293 cells were seeded in DMEM containing 4500 mg/L glucose, L-glutamine, and sodium bicarbonate, without sodium pyruvate, supplemented with FBS (10%), 24 h prior to the experiment. The compounds at a final concentration of 25 µM (higher concentration stock solution prepared in DMSO) were added to each well in triplicate and incubated for 24 and 72 h at 37 °C in a humidified atmosphere (95% air and 5% CO2). The cell viability was then determined by measuring the absorbance of the formazan product at 490 nm using a microplate reader using a SpectraMax M2 microplate spectrophotometer, Molecular Devices, San Jose, CA, USA. The percentage of cell survival was calculated as [(OD value of cells treated with the test mixture of compounds) − (OD value of culture medium)]/[(OD value of control cells) − (OD value of culture medium)] × 100%. IC50 values of compounds were calculated using non-linear regression analysis in GraphPad Prism (Boston, MA, USA).

Assay [2] has as its system normal pig kidney (LLCPK) cell lines. In words: MTS cell viability assay, non-cancerous cells. The assay is classed as cell-based. The following applies: Sus scrofa, conjugates at 25 μM, 72 h.
Source text: as §1, §2
A general note: Formazan colour is commonly taken as a measure of viable cells.

The subject of assay [3] is ABL1, c-Kit, c-Src, CDK2/cyclin A1, CSK, EGFR, mTOR/FRAP1, p38a/MAPK14, PKCa, and PI3K. The assay can be described thus: Protein kinase panel screen, overall. The assay is classed as biochemical. The following applies: single dose of 20 μM, all kinases screened. On the procedure:
Therefore, selected compound 5a was screened against several protein kinases to explore the potential of these hybrid compounds as kinase inhibitors. The screening of compound 5a was performed on a panel of 9 kinases, viz., ABL1, c-Kit, c-Src, CDK2/cyclin A1, CSK, EGFR, mTOR/FRAP1, p38a/MAPK14, PKCa, and PI3K, at a dose of 20 μM. The respective positive controls were used for each kinase, and the kinase reaction was performed at 200 μM ATP concentration for all the kinases except for PI3K, which was performed at 10 µM ATP (Table 2). […] It appeared that compound 5a containing a 3-position substitution with an isoxazole ring and a 4-position with a carbonyl group has a detrimental effect on kinase inhibition. Previously 3-substituted benzopyran compound with a short alkyl chain of urea (NH-CO-NH-Et/Me/iPr) was reported with Abl kinase inhibitory activity in the range of 4–27 μM [36]. […] Due to prominent antiproliferative activity, these compounds may have some other targets for anticancer activity.
Compound 5a was tested at a single dose of 20 μM against 9 kinases, viz., Abl1, c-Kit, c-Src, CDK2/cyclin A1, CSK, EGFR, mTOR/FRAP1, p38a/MAPK14, PKCa, and PI3K using our previously reported protocol in duplicate by Reaction Biology Corporation. […]

Assay [4] relates to human breast tumor (MDA-MB-231) cell lines. In words: MTS cell viability assay. The assay is classed as cell-based. The protocol:
(§3) All the 14 hybrid compounds synthesized via Scheme 1, along with the intermediates and starting compounds, were tested in vitro for their cytotoxicity against a panel of 6 human cancer cell lines. This panel involved human leukemia carcinoma (CCRF-CEM), human ovarian adenocarcinoma (SKOV-3), human breast tumor (MDA-MB-231), human prostate cancer (PC-3), androgen-independent human prostate cancer (DU-145), and human renal carcinoma (iSLK) cell lines. The compounds were tested at a concentration of 25 μM for incubation periods of 24 and 72 h. Standard anticancer drug doxorubicin at a concentration of 5 μM and DMSO were used as controls in all the cell assays. The antiproliferative profile of benzopyran-4-one-isoxazole conjugates is shown in Figure 2 (cf. Supplementary Materials for the data obtained for intermediates and starting materials Figure S28.1–S28.6, page no. 71–76).
as §2

Assay [5] concerns panel of cancer cell lines (CCRF-CEM, SKOV-3, MDA-MB-231, PC-3, DU-145, iSLK). In words: MTS cell viability assay, summary over the cancer cell line panel. It is filed as cell-based. The following applies: Homo sapiens. The protocol: as §3, §2

Consider `Cc1noc(C)c1C(=O)OCc1coc2ccccc2c1=O` [Compound 5a, (4-Oxo-4H-1-benzopyran-3-yl)methyl 3,5-dimethylisoxazole-4-carboxylate], for which the IC50 in assay [1] (HEK293, normal HEK-293 cells, average of three independent tests in triplicate) was 293 µM; in assay [4] (average of three independent tests in triplicate) it was 5.6 µM; in assay [5] (range over CCRF-CEM, MDA-MB-231, PC3, DU-145, read-out: IC50 against all the cancer cell lines (range)), 5.6 to 17.8 µM. In addition, the inhibition at 25 µM was 37% in assay [1] (HEK293, conjugates at 25 μM, 72 h); 57% in assay [2]; 78% in assay [4] (conjugates at 25 μM, 72 h, read-out: Inhibition of Cancer Cell Lines MDA-MB-231); 44 to 81% in assay [5] (25 μM, 72 h, range over six cancer cell lines, read-out: percentage of inhibition (range over the cancer cell lines)). Besides, the “kinase inhibitory activity (in words)” value in assay [3] was “inactive; also recorded: did not show protein tyrosine kinase inhibitory activity”.

A word on the IC50: it is the midpoint of a concentration-inhibition curve. In general, inhibition refers to the relative decrease from the control value, in per cent.
